{"source": "BindingDB's records for doi:10.1016/j.bmcl.2009.03.129", "about": "(Wyeth Research, 2009)", "target": "3-phosphoinositide-dependent protein kinase 1 (PDPK1) (Homo sapiens) (UniProt O15530)", "test": "Inhibition of PDK1", "note": "pIC50: −log10 of the molar value.", "data": [{"compound": "CCOC(=O)c1cnn2c(-c3cccc(NC(=O)c4cccc(C(F)(F)F)c4)c3)ccnc12", "note": "[ethyl 7-(3-(3-(trifluoromethyl)benzamido)phenyl)pyrazolo[1,5-a]pyrimidine-3-carboxylate]", "values": [{"measurement": "pIC50", "result": "< 5.00"}]}]}
